Measured values reported in patent US6914045B2, “Glycopeptide antibiotics” (Wyeth Holdings Corporation, priority 2001, dated 2005).
In brackets after ≈: the same amount, converted by molar mass.

What was measured:
Test in all cases: in vitro antibacterial evaluation, MIC by broth dilution
Type in all cases: cell-based
Staphylococcus sp. = settings: broth dilution, 18 hours at 35° C.; for MIC Staphylococcus aureus (GC 1131): strain GC 1131
Procedure, shortened: (§1)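 MIC, the lowest antibiotic concentration preventing growth, was read across 64-0.06 μg/mL with 5×10^5 CFU/mL inoculum. Method followed NCCLS M7-A2 broth dilution using Mueller-Hinton II; Gram-positive strains covered recent methicillin-, penicillin- and/or vancomycin-resistant clinical isolates.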

Enterococcus sp. = settings: broth dilution, 18 hours at 35° C.; for MIC Enterococcus faecalis (ATCC 29212): strain ATCC 29212; for MIC Enterococcus faecalis (GC 2242): strain GC 2242; for MIC Enterococcus faecium (GC 2243): strain GC 2243; for MIC Enterococcus faecalis (GC 2691): strain GC 2691; for MIC Enterococcus faecalis (GC 3059): strain GC 3059; for MIC Enterococcus faecalis (GC 4552): strain GC 4552; for MIC Enterococcus faecalis (GC 4553): strain GC 4553; for MIC Enterococcus faecalis (GC 4554): strain GC 4554; for MIC Enterococcus faecium (GC 4556): strain GC 4556; for MIC Enterococcus faecium (GC 4557): strain GC 4557; for MIC Enterococcus avium (GC 4558): strain GC 4558; for MIC Enterococcus faecalis (GC 6189): strain GC 6189
Procedure, shortened: as §1

Escherichia coli = tested on: Escherichia coli
Procedure, shortened: as §1

Streptococcus sp. = settings: broth dilution, 18 hours at 35° C.; for MIC Streptococcus pneumoniae (ATCC 6301): strain ATCC 6301; for MIC Streptococcus pneumoniae (GC 1894): strain GC 1894; for MIC Streptococcus pyogenes (GC 4563): strain GC 4563; for MIC Streptococcus agalactiae (GC 4564): strain GC 4564; for MIC Streptococcus pneumoniae (GC 4565): strain GC 4565
Procedure, shortened: as §1

MIC Staphylococcus aureus (GC 1131) (Staphylococcus sp.; inoculum 5×10^5 CFU/mL): 16 µg/mL (≈ 10.9 µM)
MIC Staphylococcus aureus (ATCC 29213) (Staphylococcus sp.; strain ATCC 29213): 16 µg/mL (≈ 10.9 µM)
MIC Staphylococcus aureus (GC 1131) (Staphylococcus sp.): 16 µg/mL (≈ 10.9 µM)
MIC Staphylococcus aureus (GC 3051) (Staphylococcus sp.; strain GC 3051): 16 µg/mL (≈ 10.9 µM)
MIC Staphylococcus aureus (GC 3053) (Staphylococcus sp.; strain GC 3053): 16 µg/mL (≈ 10.9 µM)
MIC Staphylococcus aureus (GC 4541) (Staphylococcus sp.; strain GC 4541): 8 µg/mL (≈ 5.43 µM)
MIC Staphylococcus aureus (GC 4542) (Staphylococcus sp.; strain GC 4542): 16 µg/mL (≈ 10.9 µM)
MIC Staphylococcus aureus-SMITH (GC 4543) (Staphylococcus sp.; strain GC 4543): 16 µg/mL (≈ 10.9 µM)
MIC Staphylococcus aureus (GC 4544) (Staphylococcus sp.; strain GC 4544): 16 µg/mL (≈ 10.9 µM)
MIC Staphylococcus aureus (GC 4545) (Staphylococcus sp.; strain GC 4545): 16 µg/mL (≈ 10.9 µM)
MIC Coagulase Negative Staphylococcus (GC 4547) (Staphylococcus sp.; strain GC 4547): 8 µg/mL (≈ 5.43 µM)
MIC Coagulase Negative Staphylococcus (GC 4548) (Staphylococcus sp.; strain GC 4548): 8 µg/mL (≈ 5.43 µM)
MIC Coagulase Negative Staphylococcus (GC 4549) (Staphylococcus sp.; strain GC 4549): 8 µg/mL (≈ 5.43 µM)
MIC Coagulase Negative Staphylococcus (GC 4551) (Staphylococcus sp.; strain GC 4551): 16 µg/mL (≈ 10.9 µM)
MIC Coagulase Negative Staphylococcus (GC 6257) (Staphylococcus sp.; strain GC 6257): 8 µg/mL (≈ 5.43 µM)
MIC Enterococcus faecalis (ATCC 29212) (Enterococcus sp.; inoculum 5×10^5 CFU/mL): 32 µg/mL (≈ 21.7 µM)
MIC Enterococcus faecalis (GC 2242) (Enterococcus sp.; inoculum 5×10^5 CFU/mL): 32 µg/mL (≈ 21.7 µM)
MIC Enterococcus faecium (GC 2243) (Enterococcus sp.; inoculum 5×10^5 CFU/mL): 32 µg/mL (≈ 21.7 µM)
MIC Enterococcus faecalis (GC 2691) (Enterococcus sp.; inoculum 5×10^5 CFU/mL): 32 µg/mL (≈ 21.7 µM)
MIC Enterococcus faecalis (GC 3059) (Enterococcus sp.; inoculum 5×10^5 CFU/mL): 32 µg/mL (≈ 21.7 µM)
MIC Enterococcus faecalis (GC 4552) (Enterococcus sp.; inoculum 5×10^5 CFU/mL): 32 µg/mL (≈ 21.7 µM)
MIC Enterococcus faecalis (GC 4553) (Enterococcus sp.; inoculum 5×10^5 CFU/mL): 32 µg/mL (≈ 21.7 µM)
MIC Enterococcus faecalis (GC 4554) (Enterococcus sp.; inoculum 5×10^5 CFU/mL): 32 µg/mL (≈ 21.7 µM)
MIC Enterococcus faecium (GC 4556) (Enterococcus sp.; inoculum 5×10^5 CFU/mL): 32 µg/mL (≈ 21.7 µM)
MIC Enterococcus faecium (GC 4557) (Enterococcus sp.; inoculum 5×10^5 CFU/mL): 8 µg/mL (≈ 5.43 µM)
MIC Enterococcus avium (GC 4558) (Enterococcus sp.; inoculum 5×10^5 CFU/mL): 32 µg/mL (≈ 21.7 µM)
MIC Enterococcus faecalis (GC 6189) (Enterococcus sp.; inoculum 5×10^5 CFU/mL): 32 µg/mL (≈ 21.7 µM)
MIC Enterococcus faecalis (ATCC 29212) (Enterococcus sp.): 32 µg/mL (≈ 21.7 µM)
MIC Enterococcus faecalis (GC 2242) (Enterococcus sp.): 32 µg/mL (≈ 21.7 µM)
MIC Enterococcus faecium (GC 2243) (Enterococcus sp.): 32 µg/mL (≈ 21.7 µM)
MIC Enterococcus faecalis (GC 2691) (Enterococcus sp.): 32 µg/mL (≈ 21.7 µM)
MIC Enterococcus faecalis (GC 3059) (Enterococcus sp.): 32 µg/mL (≈ 21.7 µM)
MIC Enterococcus faecalis (GC 4552) (Enterococcus sp.): 32 µg/mL (≈ 21.7 µM)
MIC Enterococcus faecalis (GC 4553) (Enterococcus sp.): 32 µg/mL (≈ 21.7 µM)
MIC Enterococcus faecalis (GC 4554) (Enterococcus sp.): 32 µg/mL (≈ 21.7 µM)
MIC Enterococcus faecium (GC 4556) (Enterococcus sp.): 32 µg/mL (≈ 21.7 µM)
MIC Enterococcus faecium (GC 4557) (Enterococcus sp.): 8 µg/mL (≈ 5.43 µM)
MIC Enterococcus avium (GC 4558) (Enterococcus sp.): 32 µg/mL (≈ 21.7 µM)
MIC Enterococcus faecalis (GC 6189) (Enterococcus sp.): 32 µg/mL (≈ 21.7 µM)
MIC Escherichia coli (ATCC 25922) (Escherichia coli; strain ATCC 25922, 18 hours at 35° C.): >128 µg/mL
MIC Escherichia coli (GC 4559) (Escherichia coli; strain GC 4559, 18 hours at 35° C.): >128 µg/mL
MIC Escherichia coli (GC 4560) (Escherichia coli; strain GC 4560, 18 hours at 35° C.): 8 µg/mL (≈ 5.43 µM)
MIC Streptococcus pneumoniae (ATCC 6301) (Streptococcus sp.; inoculum 5×10^5 CFU/mL): 1 µg/mL (≈ 0.679 µM)
MIC Streptococcus pneumoniae (GC 1894) (Streptococcus sp.; inoculum 5×10^5 CFU/mL): 0.25 µg/mL (≈ 0.17 µM)
MIC Streptococcus pyogenes (GC 4563) (Streptococcus sp.; inoculum 5×10^5 CFU/mL): 1 µg/mL (≈ 0.679 µM)
MIC Streptococcus agalactiae (GC 4564) (Streptococcus sp.; inoculum 5×10^5 CFU/mL): 2 µg/mL (≈ 1.36 µM)
MIC Streptococcus pneumoniae (GC 4565) (Streptococcus sp.; inoculum 5×10^5 CFU/mL): 1 µg/mL (≈ 0.679 µM)
MIC Streptococcus pneumoniae (ATCC 6301) (Streptococcus sp.): 1 µg/mL (≈ 0.679 µM)
MIC Streptococcus pneumoniae (GC 1894) (Streptococcus sp.): 0.25 µg/mL (≈ 0.17 µM)
MIC Streptococcus pyogenes (GC 4563) (Streptococcus sp.): 1 µg/mL (≈ 0.679 µM)
MIC Streptococcus agalactiae (GC 4564) (Streptococcus sp.): 2 µg/mL (≈ 1.36 µM)
MIC Streptococcus pneumoniae (GC 4565) (Streptococcus sp.): 1 µg/mL (≈ 0.679 µM)
Compound: CCOc1cc(C2OCC3OC(OC4C(CO)OC(Oc5ccc(CC6NC(=O)C(C(C)c7ccccc7)NC(=O)CNC(=O)C(CO)NC(=O)C(C(O)C7CNC(=N)N7C7OC(CO)C(O)C(O)C7O)NC(=O)C(C(O)C7CNC(=N)N7)NC6=O)cc5)C(O)C4O)C(O)C(O)C3O2)ccc1[N+](=O)[O-] (centres unmarked) [Example 167]
MIC Staphylococcus haemolyticus (GC 4546) (Staphylococcus sp.; strain GC 4546): 16 µg/mL (≈ 10.9 µM)
